Results reported in ChEMBL document CHEMBL1153906 (Bioorg Med Chem, 2009).

Key:
[1] = Selectivity ratio of Ki for human carbonic anhydrase 2 to Ki for Caenorhabditis elegans carbonic anhydrase 4b
[2] = Inhibition of Caenorhabditis elegans carbonic anhydrase 4b by CO2 hydration assay

| Ratio Ki [1] | Ki [2] | SMILES |
| --- | --- | --- |
| 0.02 | 260 nM | NNC(=O)c1[nH]c2ccc(S(N)(=O)=O)cc2c1-c1c(F)c(F)c(F)c(F)c1F |
| 0.91 | 10.1 nM | NNC(=O)c1[nH]c2ccc(S(N)(=O)=O)cc2c1-c1cccc(Cl)c1 |
| 2.58 | 6 nM | NNC(=O)c1[nH]c2ccc(S(N)(=O)=O)cc2c1-c1ccc(F)cc1 |
| 0.86 | 9.9 nM | NNC(=O)c1[nH]c2ccc(S(N)(=O)=O)cc2c1-c1cccc(F)c1 |
| 3.54 | 11.5 nM | NNC(=O)c1[nH]c2ccc(S(N)(=O)=O)cc2c1-c1ccc(Br)cc1 |
| 4.95 | 12.2 nM | Cc1ccc(-c2c(C(=O)NN)[nH]c3ccc(S(N)(=O)=O)cc23)cc1 |
| 0.02 | 330 nM | COc1cccc(-c2c(C(=O)NN)[nH]c3ccc(S(N)(=O)=O)cc23)c1 |
| 2.88 | 12.5 nM | NNC(=O)c1[nH]c2ccc(S(N)(=O)=O)cc2c1-c1ccccc1F |
| 3.63 | 13.3 nM | Cc1cccc(-c2c(C(=O)NN)[nH]c3ccc(S(N)(=O)=O)cc23)c1 |
| 0.18 | 260 nM | NNC(=O)c1[nH]c2ccc(S(N)(=O)=O)cc2c1-c1ccccc1Br |
| 1.78 | 6.5 nM | NNC(=O)c1[nH]c2ccc(S(N)(=O)=O)cc2c1-c1ccc(Cl)cc1 |
| 0.1 | 372 nM | NNC(=O)c1[nH]c2ccc(S(N)(=O)=O)cc2c1-c1ccccc1Cl |
| 4.03 | 13.4 nM | NNC(=O)c1[nH]c2ccc(S(N)(=O)=O)cc2c1-c1cccc(Br)c1 |
| 0.03 | 326 nM | Cc1ccccc1-c1c(C(=O)NN)[nH]c2ccc(S(N)(=O)=O)cc12 |
